± gives the expanded uncertainty stated by the source.
Columns and labels:
[1] = refractive index (Na D-line) (dimensionless); xn = mol fraction of the nth substance listed; conditions: 101.33 kPa, Liquid
[2] = xn = mol fraction of the nth substance listed; conditions: 101.33 kPa, Liquid

ClC=C(Cl)Cl [trichloroethene] + CCCCN(CCCC)CCCC
Conditions	mass density, 298.15 K [kg/m3]	mass density, 303.15 K [kg/m3]	mass density, 308.15 K [kg/m3]	refractive index, 298.15 K	refractive index, 303.15 K	refractive index, 308.15 K	speed of sound, 298.15 K [m/s]	viscosity, 298.15 K [mPa·s]	viscosity, 303.15 K [mPa·s]	viscosity, 308.15 K [mPa·s]
[1], x2 = 0	–	–	–	1.4752 ± 0.0012	1.4722 ± 0.0012	1.469 ± 0.0012	–	–	–	–
[1], x2 = 0.0996	–	–	–	1.4632 ± 0.0012	1.4604 ± 0.0012	1.4576 ± 0.0012	–	–	–	–
[1], x2 = 0.1953	–	–	–	1.4563 ± 0.0012	1.453 ± 0.0012	1.4495 ± 0.0012	–	–	–	–
[1], x2 = 0.2913	–	–	–	1.4502 ± 0.0012	1.4469 ± 0.0012	1.4436 ± 0.0012	–	–	–	–
[1], x2 = 0.3902	–	–	–	1.4448 ± 0.0012	1.4417 ± 0.0012	1.4386 ± 0.0012	–	–	–	–
[1], x2 = 0.4875	–	–	–	1.4402 ± 0.0012	1.4377 ± 0.0012	1.4352 ± 0.0012	–	–	–	–
[1], x2 = 0.5906	–	–	–	1.437 ± 0.0013	1.4343 ± 0.0013	1.4317 ± 0.0013	–	–	–	–
[1], x2 = 0.6843	–	–	–	1.4346 ± 0.0013	1.4315 ± 0.0013	1.4284 ± 0.0013	–	–	–	–
[1], x2 = 0.7846	–	–	–	1.4318 ± 0.0013	1.4295 ± 0.0013	1.427 ± 0.0013	–	–	–	–
[1], x2 = 0.8835	–	–	–	1.4298 ± 0.0013	1.4272 ± 0.0013	1.4246 ± 0.0013	–	–	–	–
[2], x2 = 0	1456.7 ± 1.6	1447.1 ± 1.6	1439.5 ± 1.7	–	–	–	1028 ± 5	0.595 ± 0.016	0.571 ± 0.016	0.549 ± 0.015
[2], x2 = 0.0996	1299.3 ± 1.4	1291.8 ± 1.5	1284.4 ± 1.5	–	–	–	1054 ± 5	0.652 ± 0.017	0.622 ± 0.017	0.592 ± 0.016
[2], x2 = 0.1953	1186.7 ± 1.3	1180.1 ± 1.3	1173.3 ± 1.3	–	–	–	1084 ± 5	0.713 ± 0.019	0.675 ± 0.018	0.637 ± 0.017
[2], x2 = 0.2913	1098.3 ± 1.2	1092.1 ± 1.2	1086 ± 1.2	–	–	–	1108 ± 5	0.776 ± 0.02	0.73 ± 0.019	0.684 ± 0.018
[2], x2 = 0.3902	1025.1 ± 1.1	1019.6 ± 1.1	1013.9 ± 1.2	–	–	–	1129 ± 5	0.842 ± 0.021	0.788 ± 0.02	0.734 ± 0.019
[2], x2 = 0.4875	966.3 ± 1	961 ± 1	955.8 ± 1.1	–	–	–	1151 ± 5	0.909 ± 0.023	0.846 ± 0.022	0.783 ± 0.02
[2], x2 = 0.5906	914.7 ± 1	909.8 ± 1	904.9 ± 1	–	–	–	1170 ± 5	0.978 ± 0.025	0.907 ± 0.023	0.835 ± 0.021
[2], x2 = 0.6843	875 ± 0.9	870.3 ± 0.9	865.7 ± 1	–	–	–	1187 ± 5	1.041 ± 0.026	0.962 ± 0.024	0.882 ± 0.022
[2], x2 = 0.7846	838.1 ± 0.9	833.7 ± 0.9	829.1 ± 0.9	–	–	–	1205 ± 5	1.105 ± 0.027	1.018 ± 0.025	0.93 ± 0.024
[2], x2 = 0.8835	806.5 ± 0.8	802.2 ± 0.9	797.8 ± 0.9	–	–	–	1227 ± 5	1.167 ± 0.029	1.071 ± 0.027	0.976 ± 0.025

CCCCN(CCCC)CCCC [tributylamine] + ClC=C(Cl)Cl
x1 = 1
Conditions	mass density, 298.15 K [kg/m3]	mass density, 303.15 K [kg/m3]	mass density, 308.15 K [kg/m3]	refractive index, 298.15 K	refractive index, 303.15 K	refractive index, 308.15 K	speed of sound, 298.15 K [m/s]	viscosity, 298.15 K [mPa·s]	viscosity, 303.15 K [mPa·s]	viscosity, 308.15 K [mPa·s]
[1]	–	–	–	1.4276 ± 0.0013	1.4255 ± 0.0013	1.4228 ± 0.0013	–	–	–	–
[2]	773.3 ± 0.8	769.2 ± 0.8	765.7 ± 0.9	–	–	–	1262 ± 6	1.239 ± 0.03	1.124 ± 0.028	1.028 ± 0.026

Reference: the NIST ThermoML archive (doi:10.1021/je030147g)
